Laboratory results as given in the supplement of paper PMC10307832.

Tests used:
Test in all cases: relative viability (nuclei count vs DMSO), 5 days (fraction); higher = more cells survive
Decitabine + Pemetrexed = compound: Nc1ncn([C@H]2C[C@H](O)[C@@H](CO)O2)c(=O)n1 [Decitabine] + Nc1nc2[nH]cc(CCc3ccc(C(=O)N[C@@H](CCC(=O)O)C(=O)O)cc3)c2c(=O)[nH]1 [Pemetrexed] (partner 0.2 µM)
Summary of the method: (§1)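 Medians of duplicate plates are given as relative viability. That measure is the nuclei count in treated wells divided by the count in vehicle wells. Counts were taken on 4× images of lung cancer cell lines in 1536-well plates, 5 days after pin-tool dosing the day after seeding with one drug alone or a fixed anchor-drug dose plus five library-drug doses (not always all listed) in √10 steps.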

Decitabine + Luminespib = compound: Nc1ncn([C@H]2C[C@H](O)[C@@H](CO)O2)c(=O)n1 [Decitabine] + CCNC(=O)c1noc(-c2cc(C(C)C)c(O)cc2O)c1-c1ccc(CN2CCOCC2)cc1 [Luminespib] (partner 0.01 µM)
Summary of the method: as §1

Cediranib + Vorinostat = compound: COc1cc2c(Oc3ccc4[nH]c(C)cc4c3F)ncnc2cc1OCCCN1CCCC1 [Cediranib] + O=C(CCCCCCC(=O)Nc1ccccc1)NO [Vorinostat] (partner 1 µM)
Summary of the method: as §1

Cediranib + Dasatinib = compound: COc1cc2c(Oc3ccc4[nH]c(C)cc4c3F)ncnc2cc1OCCCN1CCCC1 [Cediranib] + Cc1nc(Nc2ncc(C(=O)Nc3c(C)cccc3Cl)s2)cc(N2CCN(CCO)CC2)n1 [Dasatinib] (partner 0.075 µM)
Summary of the method: as §1

HCC-44 was tested, and the relative viability (Decitabine + Pemetrexed; first compound 0.04 µM) was 0.638, the relative viability (Decitabine + Pemetrexed; first compound 0.1265 µM) was 0.632 and the relative viability (Decitabine + Pemetrexed; first compound 0.4 µM) was 0.547. The relative viability (Decitabine + Pemetrexed; first compound 1.265 µM) was 0.595, the relative viability (Decitabine + Pemetrexed; first compound 4 µM) was 0.548 and the relative viability (Decitabine + Luminespib; first compound 0.1265 µM) was 0.848. It also gave a relative viability (Decitabine + Luminespib; first compound 0.4 µM) of 0.52, a relative viability (Decitabine + Luminespib; first compound 1.265 µM) of 0.618 and a relative viability (Decitabine + Luminespib; first compound 4 µM) of 0.471. It also gave a relative viability (Cediranib + Vorinostat; first compound 0.04 µM) of 1.14, a relative viability (Cediranib + Vorinostat; first compound 0.1265 µM) of 0.94 and a relative viability (Cediranib + Vorinostat; first compound 0.4 µM) of 1.07. The relative viability (Cediranib + Vorinostat; first compound 1.265 µM) was 1.1 and the relative viability (Cediranib + Vorinostat; first compound 4 µM) was 1.11.

HCC-78 gave a relative viability (Cediranib + Dasatinib; first compound 0.04 µM) of 0.376, a relative viability (Cediranib + Dasatinib; first compound 0.1265 µM) of 0.363 and a relative viability (Cediranib + Dasatinib; first compound 0.4 µM) of 0.405. For the same cell line, the relative viability (Cediranib + Dasatinib; first compound 1.265 µM) was 0.29, the relative viability (Cediranib + Dasatinib; first compound 4 µM) was 0.406 and the relative viability (Decitabine + Pemetrexed; first compound 0.04 µM) was 0.902. The relative viability (Decitabine + Pemetrexed; first compound 0.1265 µM) was 1.18, the relative viability (Decitabine + Pemetrexed; first compound 0.4 µM) was 0.874 and the relative viability (Decitabine + Pemetrexed; first compound 1.265 µM) was 0.825. For the same cell line, the relative viability (Decitabine + Pemetrexed; first compound 4 µM) was 0.864, the relative viability (Cediranib + Vorinostat; first compound 0.04 µM) was 0.45 and the relative viability (Cediranib + Vorinostat; first compound 0.1265 µM) was 0.367. It also gave a relative viability (Cediranib + Vorinostat; first compound 0.4 µM) of 0.443, a relative viability (Cediranib + Vorinostat; first compound 1.265 µM) of 0.499 and a relative viability (Cediranib + Vorinostat; first compound 4 µM) of 0.49.

HCC-366 showed a relative viability (Cediranib + Dasatinib; first compound 0.04 µM) of 0.649, a relative viability (Cediranib + Dasatinib; first compound 0.1265 µM) of 0.622 and a relative viability (Cediranib + Dasatinib; first compound 0.4 µM) of 0.553. For the same cell line, the relative viability (Cediranib + Dasatinib; first compound 1.265 µM) was 0.636, the relative viability (Cediranib + Dasatinib; first compound 4 µM) was 0.711 and the relative viability (Decitabine + Pemetrexed; first compound 0.04 µM) was 0.16. The relative viability (Decitabine + Pemetrexed; first compound 0.1265 µM) was 0.115, the relative viability (Decitabine + Pemetrexed; first compound 0.4 µM) was 0.0833 and the relative viability (Decitabine + Pemetrexed; first compound 1.265 µM) was 0.0595. It also gave a relative viability (Decitabine + Pemetrexed; first compound 4 µM) of 0.0583, a relative viability (Cediranib + Vorinostat; first compound 0.04 µM) of 0.346 and a relative viability (Cediranib + Vorinostat; first compound 0.1265 µM) of 0.401. The relative viability (Cediranib + Vorinostat; first compound 0.4 µM) was 0.29, the relative viability (Cediranib + Vorinostat; first compound 1.265 µM) was 0.287 and the relative viability (Cediranib + Vorinostat; first compound 4 µM) was 0.394.

Work on HCC-827 yielded a relative viability (Cediranib + Dasatinib; first compound 0.04 µM) of 0.284, a relative viability (Cediranib + Dasatinib; first compound 0.4 µM) of 0.226 and a relative viability (Cediranib + Dasatinib; first compound 1.265 µM) of 0.309. For the same cell line, the relative viability (Cediranib + Dasatinib; first compound 4 µM) was 0.275, the relative viability (Decitabine + Pemetrexed; first compound 0.04 µM) was 0.161 and the relative viability (Decitabine + Pemetrexed; first compound 0.1265 µM) was 0.585. For the same cell line, the relative viability (Decitabine + Pemetrexed; first compound 0.4 µM) was 0.198, the relative viability (Decitabine + Pemetrexed; first compound 1.265 µM) was 0.202 and the relative viability (Decitabine + Pemetrexed; first compound 4 µM) was 0.219. The relative viability (Decitabine + Luminespib; first compound 0.04 µM) was 0.239, the relative viability (Decitabine + Luminespib; first compound 0.1265 µM) was 0.31 and the relative viability (Decitabine + Luminespib; first compound 0.4 µM) was 0.246. The relative viability (Decitabine + Luminespib; first compound 1.265 µM) was 0.301, the relative viability (Decitabine + Luminespib; first compound 4 µM) was 0.316 and the relative viability (Cediranib + Vorinostat; first compound 0.04 µM) was 0.847. For the same cell line, the relative viability (Cediranib + Vorinostat; first compound 0.1265 µM) was 0.574, the relative viability (Cediranib + Vorinostat; first compound 0.4 µM) was 0.846 and the relative viability (Cediranib + Vorinostat; first compound 1.265 µM) was 0.729. The relative viability (Cediranib + Vorinostat; first compound 4 µM) was 1.12.

In the case of HOP-62, the relative viability (Cediranib + Dasatinib; first compound 0.04 µM) is reported as 0.698, the relative viability (Cediranib + Dasatinib; first compound 0.1265 µM) is reported as 0.909 and the relative viability (Cediranib + Dasatinib; first compound 0.4 µM) is reported as 0.577. The relative viability (Cediranib + Dasatinib; first compound 1.265 µM) was 0.617, the relative viability (Cediranib + Dasatinib; first compound 4 µM) was 0.77 and the relative viability (Decitabine + Pemetrexed; first compound 0.04 µM) was 0.283. For the same cell line, the relative viability (Decitabine + Pemetrexed; first compound 0.1265 µM) was 0.31, the relative viability (Decitabine + Pemetrexed; first compound 0.4 µM) was 0.205 and the relative viability (Decitabine + Pemetrexed; first compound 1.265 µM) was 0.186. The relative viability (Decitabine + Pemetrexed; first compound 4 µM) was 0.183, the relative viability (Decitabine + Luminespib; first compound 0.04 µM) was 0.488 and the relative viability (Decitabine + Luminespib; first compound 0.1265 µM) was 0.342. For the same cell line, the relative viability (Decitabine + Luminespib; first compound 0.4 µM) was 0.21, the relative viability (Decitabine + Luminespib; first compound 1.265 µM) was 0.187 and the relative viability (Decitabine + Luminespib; first compound 4 µM) was 0.209. The relative viability (Cediranib + Vorinostat; first compound 0.04 µM) was 0.633, the relative viability (Cediranib + Vorinostat; first compound 0.1265 µM) was 0.418 and the relative viability (Cediranib + Vorinostat; first compound 0.4 µM) was 0.575. The relative viability (Cediranib + Vorinostat; first compound 1.265 µM) was 0.468 and the relative viability (Cediranib + Vorinostat; first compound 4 µM) was 0.896.

Cell Line IA-LM has a relative viability (Cediranib + Vorinostat; first compound 0.04 µM) of 1.12, a relative viability (Cediranib + Vorinostat; first compound 0.4 µM) of 0.895 and a relative viability (Cediranib + Vorinostat; first compound 1.265 µM) of 1.03. For the same cell line, the relative viability (Cediranib + Vorinostat; first compound 4 µM) was 1.06.

With LC-2-ad the relative viability (Cediranib + Dasatinib; first compound 0.04 µM) was 0.555, the relative viability (Cediranib + Dasatinib; first compound 0.1265 µM) was 0.654 and the relative viability (Cediranib + Dasatinib; first compound 0.4 µM) was 0.427. It also gave a relative viability (Cediranib + Dasatinib; first compound 1.265 µM) of 0.496, a relative viability (Cediranib + Dasatinib; first compound 4 µM) of 0.403 and a relative viability (Decitabine + Pemetrexed; first compound 0.04 µM) of 0.288. It also gave a relative viability (Decitabine + Pemetrexed; first compound 0.1265 µM) of 0.255, a relative viability (Decitabine + Pemetrexed; first compound 0.4 µM) of 0.27 and a relative viability (Decitabine + Pemetrexed; first compound 1.265 µM) of 0.239. For the same cell line, the relative viability (Decitabine + Pemetrexed; first compound 4 µM) was 0.266, the relative viability (Decitabine + Luminespib; first compound 0.04 µM) was 0.839 and the relative viability (Decitabine + Luminespib; first compound 0.1265 µM) was 0.958. It also gave a relative viability (Decitabine + Luminespib; first compound 0.4 µM) of 0.782, a relative viability (Decitabine + Luminespib; first compound 1.265 µM) of 0.492 and a relative viability (Decitabine + Luminespib; first compound 4 µM) of 0.558. The relative viability (Cediranib + Vorinostat; first compound 0.04 µM) was 0.678, the relative viability (Cediranib + Vorinostat; first compound 0.1265 µM) was 0.625 and the relative viability (Cediranib + Vorinostat; first compound 0.4 µM) was 0.669. For the same cell line, the relative viability (Cediranib + Vorinostat; first compound 1.265 µM) was 0.825 and the relative viability (Cediranib + Vorinostat; first compound 4 µM) was 0.705.

LCLC-97TM1 gave a relative viability (Cediranib + Dasatinib; first compound 0.04 µM) of 0.893, a relative viability (Cediranib + Dasatinib; first compound 0.1265 µM) of 0.81 and a relative viability (Cediranib + Dasatinib; first compound 0.4 µM) of 0.799. The relative viability (Cediranib + Dasatinib; first compound 1.265 µM) was 0.876, the relative viability (Cediranib + Dasatinib; first compound 4 µM) was 0.834 and the relative viability (Decitabine + Pemetrexed; first compound 0.04 µM) was 0.173. It also gave a relative viability (Decitabine + Pemetrexed; first compound 0.1265 µM) of 0.134, a relative viability (Decitabine + Pemetrexed; first compound 0.4 µM) of 0.0965 and a relative viability (Decitabine + Pemetrexed; first compound 1.265 µM) of 0.125. It also gave a relative viability (Decitabine + Pemetrexed; first compound 4 µM) of 0.13, a relative viability (Decitabine + Luminespib; first compound 0.04 µM) of 0.403 and a relative viability (Decitabine + Luminespib; first compound 0.1265 µM) of 0.48. It also gave a relative viability (Decitabine + Luminespib; first compound 0.4 µM) of 0.322, a relative viability (Decitabine + Luminespib; first compound 1.265 µM) of 0.143 and a relative viability (Decitabine + Luminespib; first compound 4 µM) of 0.159. It also gave a relative viability (Cediranib + Vorinostat; first compound 0.04 µM) of 0.655, a relative viability (Cediranib + Vorinostat; first compound 0.4 µM) of 0.536 and a relative viability (Cediranib + Vorinostat; first compound 1.265 µM) of 0.707. It also gave a relative viability (Cediranib + Vorinostat; first compound 4 µM) of 1.08.
